Data: ChEMBL document CHEMBL1800011, “Anti-leishmanial activity of disubstituted purines and related pyrazolo[4,3-d]pyrimidines” (Bioorg Med Chem Lett, 2011)
pEC50, pIC50: −log10 of the molar value.

Legend:
[1] = test system: Leishmania donovani; experiment: Antileishmanial activity against axenic amastigotes of Leishmania donovani MHOM/SD/1962/1S-Cl2d after 24 hrs by alamar Blue viability assay; format: functional, organism-based
[2] = Inhibition of Leishmania donovani CRK3/CYC6 activity expressed in Escherichia coli using 15 uM ATP
[3] = test system: Leishmania donovani; experiment: Antileishmanial activity against axenic amastigotes of Leishmania donovani MHOM/SD/1962/1S-Cl2d at 30 uM after 24 hrs by alamar Blue viability assay; format: functional
[4] = test system: Leishmania donovani; experiment: Inhibition of Leishmania donovani CRK3/CYC6 activity expressed in Escherichia coli using 15 uM ATP at 30 uM

SMILES | pIC50 [2] | inhibition [4] [%] | pEC50 [1] | inhibition at 30 µM [3] [%]
CC(C)c1n[nH]c2c(NCc3ccccc3)ncnc12 | 4.27 | 24.5 | 4.16 | 29.6
CC(C)=CCNc1ncnc2c(C(C)C)n[nH]c12 | 4.24 | 32.5 | 4.07 | 45.5
CC(C)c1n[nH]c2c(Nc3cccc(F)c3)ncnc12 | 4.84 | 70.4 | 4.63 | 66.6
COc1ccc(CNc2ncnc3c(C(C)C)n[nH]c23)cc1O | 4.55 | 46.8 | 4.03 | 34.3
COc1ccc(CNc2ncnc3c(C(C)C)n[nH]c23)cc1OC | < 4.00 | 19.9 | < 4.00 | 8.4
CC(C)c1n[nH]c2c(NC34CC5CC(CC(C5)C3)C4)ncnc12 | 5.74 | 93.8 | 5.91 | 73.2
CCCCCNc1ncnc2c(C(C)C)n[nH]c12 | < 4.00 | 46.5 | 4.26 | 27.3
CC(C)c1n[nH]c2c(NCc3cccc(O)c3)ncnc12 | 4.08 | 35.8 | < 4.00 | 25.4
CC(C)c1n[nH]c2c(NC3CCC(N)CC3)ncnc12 (stereo unspecified) | < 4.00 | 35 | < 4.00 | 3.3
COc1cc(CNc2ncnc3c(C(C)C)n[nH]c23)ccc1O | 4.00 | 41 | < 4.00 | 10.4
CC(C)n1cnc2c(NC34CC5CC(CC(C5)C3)C4)ncnc21 | 4.91 | 66.1 |  | 72
CC(C)c1n[nH]c2c(Nc3ccc(F)cc3)ncnc12 | 5.17 | 78.8 | 4.94 | 75.8
CC(C)c1n[nH]c2c(NC3CCCCC3N)ncnc12 (stereo unspecified) | < 4.00 | 2.4 | < 4.00 | 15.8
CC(C)c1n[nH]c2c(Nc3cccc(Cl)c3)ncnc12 | 5.01 | 81.3 | 4.91 | 73.3
COc1ccc(CNc2ncnc3c(C(C)C)n[nH]c23)cc1 | 4.12 | 36 | 4.08 | 31.5
CC(C)c1n[nH]c2c(NCc3ccccc3O)ncnc12 | 4.92 | 68 | 4.45 | 87.4
CC(C)c1n[nH]c2c(Nc3ccccc3Br)ncnc12 | 4.79 | 35.6 | 4.73 | 40.7

The next lines start with results.

pIC50 [2] | inhibition [4] [%] | SMILES | pEC50 [1] | inhibition at 30 µM [3] [%]
4.23 | 42.3 | CC(C)c1n[nH]c2c(NCc3ccccc3N)ncnc12 | < 4.00 | 41.3
< 4.00 | 14.8 | CCCCCNc1ncnc2c1ncn2C(C)C |  | 22.6
< 4.00 | 8.8 | CC(C)n1cnc2c(NCc3cccc(O)c3)ncnc21 |  | 6.5
< 4.00 | -2.8 | CC(C)n1cnc2c(NCc3ccccc3O)ncnc21 |  | 11.7
< 4.00 | 11.2 | COc1ccc(CNc2ncnc3c2ncn3C(C)C)cc1O |  | 8.8
< 4.00 | 22.3 | CC(C)n1cnc2c(Nc3cccc(Cl)c3)ncnc21 |  | 35.1
< 4.00 | 3.5 | CC(C)n1cnc2c(NCc3ccco3)ncnc21 |  | 14.5
< 4.00 | -5.4 | CC(C)n1cnc2c(NC3CCCCC3N)ncnc21 (stereo unspecified) |  | 4.5
< 4.00 | -2.3 | COc1ccc(CNc2ncnc3c2ncn3C(C)C)cc1OC |  | 1.9
4.30 | 30.4 | CC(C)n1cnc2c(Nc3cccc(F)c3)ncnc21 |  | 16.5
< 4.00 | 1.8 | CC(C)n1cnc2c(Nc3ccccc3Br)ncnc21 |  | 26.2
< 4.00 | 18.5 | CC(C)n1cnc2c(NCc3ccccc3)ncnc21 |  | 19.9
< 4.00 | -6.9 | COc1ccc(CNc2ncnc3c2ncn3C(C)C)cc1 |  | 15.1
< 4.00 | 28.5 | CC(C)c1n[nH]c2c(NCc3ccco3)ncnc12 | < 4.00 | 16.6
< 4.00 | 11 | CC(C)n1cnc2c(NCc3ccccc3N)ncnc21 |  | 6.6
< 4.00 | 3.2 | CC(C)=CCNc1ncnc2c1ncn2C(C)C |  | 0.04
4.64 | 53.3 | CC(C)n1cnc2c(Nc3ccc(F)cc3)ncnc21 |  | 21.5
< 4.00 | 26.4 | CC(C)n1cnc2c(NC3CCC(N)CC3)ncnc21 (stereo unspecified) |  | 1
< 4.00 | 11.9 | COc1cc(CNc2ncnc3c2ncn3C(C)C)ccc1O |  | 9.5
